Key:
[1] = molecular target: T1, porcine microtubule protein (tubulin plus microtubule-associated proteins) (Sus scrofa, UniProt P02554); assay: Test-compound-induced polymerisation of porcine microtubule protein (inhibition of microtubule depolymerisation); format: biochemical, pig; conditions: test compound 4 uM, porcine microtubule protein (Batch #9) 0.8 mg/ml; 25 μM epothilone B = 100% polymerization, vehicle = 0%
T1 construct: extracted from pigs' brain by two cycles of temperature-dependent depolymerisation/polymerisation; from tissue; host or cells: pig brain
T1 sequence (P02554 whole entry): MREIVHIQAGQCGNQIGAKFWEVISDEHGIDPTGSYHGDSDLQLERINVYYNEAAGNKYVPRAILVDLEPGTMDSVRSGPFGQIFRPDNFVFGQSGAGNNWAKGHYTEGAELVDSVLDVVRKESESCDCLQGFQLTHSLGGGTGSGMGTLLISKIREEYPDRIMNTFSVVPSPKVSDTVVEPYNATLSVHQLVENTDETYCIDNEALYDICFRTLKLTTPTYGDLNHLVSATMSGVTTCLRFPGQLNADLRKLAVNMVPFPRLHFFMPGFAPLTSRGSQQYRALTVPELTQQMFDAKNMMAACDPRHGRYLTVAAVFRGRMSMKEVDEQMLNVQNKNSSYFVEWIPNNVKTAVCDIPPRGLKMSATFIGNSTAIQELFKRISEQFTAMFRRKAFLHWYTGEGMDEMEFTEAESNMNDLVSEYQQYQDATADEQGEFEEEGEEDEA
T1 sequence (P02550 whole entry partner): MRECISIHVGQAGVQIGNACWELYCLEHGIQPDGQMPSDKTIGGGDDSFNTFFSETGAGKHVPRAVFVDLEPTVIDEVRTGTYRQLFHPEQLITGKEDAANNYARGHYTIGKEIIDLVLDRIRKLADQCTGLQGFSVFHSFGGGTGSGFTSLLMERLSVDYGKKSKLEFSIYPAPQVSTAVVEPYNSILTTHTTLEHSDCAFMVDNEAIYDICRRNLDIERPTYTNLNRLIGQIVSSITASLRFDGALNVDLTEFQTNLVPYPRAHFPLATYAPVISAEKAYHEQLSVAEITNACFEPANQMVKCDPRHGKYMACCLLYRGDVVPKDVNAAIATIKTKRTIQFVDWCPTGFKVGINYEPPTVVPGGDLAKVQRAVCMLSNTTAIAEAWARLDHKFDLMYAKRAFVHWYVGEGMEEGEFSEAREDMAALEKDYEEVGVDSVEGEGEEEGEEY
Description: Stock solutions of the test compounds (10 mM) are prepared in DMSO and stored at −20° C. […] The degree of test-compound-induced polymerisation of porcine microtubule protein is determined basically as already known (see Lin et al., Cancer Chem. Pharm. 1996; 38:136-140). To summarise, a working aliquot of porcine microtubule protein is rapidly thawed and then diluted to 2× final desired concentration in ice-cold 2× MEM buffer (200 ml MES, 2 mM EGTA, 2 mM MgCl2, pH 6.7) [MES=2-morpholinoethanesulphonic acid, EGTA=ethylene glycol-bis-2(2-aminoethyl)-tetraacetic acid]. Drug or vehicle (DMSO, final concentration 5%) is diluted in water at room temperature to 2× the final desired concentration in a 0.5 ml eppendorf tube, and then put on ice. Following addition of an equal volume (50 μl) of microtubule protein (2× final desired concentration in 2× MEM buffer), the polymerization reaction is started by transferring the incubation mixtures to a room-temperature water bath for 5 min. The reaction mixtures are then placed in an Eppendorf microcentrifuge (model 5415 C) and incubated for an additional 15 min at room temperature. The samples are then centrifuged for 15 min at 14,000 rpm at room temperature. As an indirect measure for microtubule protein polymerization, the protein concentration of the supernatant (containing the remainder of non-polymerized, soluble microtubule protein) is determined by the Lowry method (DC Assay Kit, Bio-Rad Laboratories, Hercules, Calif.) and the optical density of the colour reaction is measured at 750 nm with a SpectraMax 340 photometer (Molecular Devices, Sunnydale, Calif.). […] Vehicle-treated samples serve as negative control (0% polymerization).
Final assay concentrations of test compound and porcine microtubule protein (Batch #9) were 4 uM and 0.8 mg/ml, respectively.

[2] = system: KB-31 epidermoid carcinoma cells; assay: Cell growth inhibition, KB-31 epidermoid carcinoma cells (methylene blue staining); format: cell-based, human; conditions: KB-31 cells, 4 days incubation with compound
Description: (§1) Stock solutions of the test compounds (10 mM) are prepared in DMSO and stored at −20° C. Human KB-31 and (multidrug-resistant, P-gp170 overexpressing) KB-8511 epidermoid carcinoma cells originate from Dr. M. Baker, Roswell Park Memorial institute (Buffalo, N.Y., USA) (description: see also Akiyama et al., Somat. Cell. Mol. Genetics 11, 117-126 (1985) and Fojo A., et al., Cancer Res. 45, 3002-3007 (1985) -KB-31 and KB-8511 are both derivatives of the KB cell line (ATCC). KB 31 cells may be cultivated in monolayers using RPMI-1640 medium (Amimed, BioConcept, Allschwil, Switzerland) with 10% foetal calf serum (Amimed, BioConcept, Allschwil, Switzerland), L-glutamine (Amimed, BioConcept, Allschwil, Switzerland), penicillin (50 units/ml) and streptomycin (50 μg/ml (Amimed, BioConcept, Allschwil, Switzerland). KB-8511 is a variant derived from the KB-31 cell line, which was obtained using colchichine treatment cycles, and has an approximately 40 times relative resistance to colchichine compared with KB-31 cells (Akiyama et al., Somat. Cell. Mol. Genetics 11, 117-126 (1985) and Fojo A., et al., Cancer Res. 45, 3002-3007 (1985)). The cells are incubated at 37° C. in an incubator with 5% v/v CO2 and at 80% relative humidity with RPMI-1640 medium complemented as described above. The cells are seeded in a quantity of 1.5×10^3 cells/well in 96-well microtitre plates, and incubated over night. Serial dilutions of the test compounds in culture medium are added on day 1. The plates are then incubated for a further 4 days, after which the cells are fixed with 3.3% v/v glutaraldehyde, washed with water and dyed with 0.05% w/v methylene blue. After washing, the dye is eluted with 3% HCl and the optical density measured at 665 nm with a SpectraMax 340 (Molecular Devices, Sunnyvale, Calif.). IC50 values are determined by adaptation of mathematical curves, using the SoftProprogramme (Version 2.0 or later; Molecular Devices, Sunnyvale, Calif.) and using the formula [(OD treated)−(OD start)]/[(OD control)−(OD start)]×100. […]

[3] = system: KB-8511 (multidrug-resistant, P-gp170 overexpressing) epidermoid carcinoma cells; assay: Cell growth inhibition, multidrug-resistant KB-8511 epidermoid carcinoma cells (methylene blue staining); format: cell-based, human; conditions: KB-8511 cells (P-gp170 overexpressing), 4 days incubation with compound
Description: as §1

IC50 ([2]; Homo sapiens, KB 3-1, 96 h) [nM] | IC50 ([3]; Homo sapiens, 96 h) [nM] | Structure (SMILES) | Tubulin Polymerisation (% of control) [1] | IC50 [2] [nM] | IC50 [3] [nM]
 |  | C/C(=C\c1csc(C)n1)[C@@H]1C[C@@H]2O[C@@H]2CCC[C@H](C)[C@H](O)[C@@H](C)C(=O)C(C)(C)[C@@H](O)CC(=O)O1 [Epothilone A] | 76.5 % of control |  | 
3.76 ± 0.52 | 739 ± 86 | CC(=O)O[C@H]1C(=O)[C@@]2(C)[C@H]([C@H](OC(=O)c3ccccc3)[C@]3(O)C[C@H](OC(=O)[C@H](O)[C@@H](NC(=O)c4ccccc4)c4ccccc4)C(C)=C1C3(C)C)[C@]1(OC(C)=O)CO[C@@H]1C[C@@H]2O [Paclitaxel] |  |  | 
 |  | C/C(=C\c1csc(C)n1)C1CC2OC2(C)CCCC(C)C(O)C(C)C(=O)C(C)C(O)CC(=O)O1 (stereo not drawn) [Example 1, C4-Desmethyl-Epothilone B] | 93.3 % of control | 0.49 ± 0.05 | 0.8 ± 0.16
 |  | C/C(=C\c1csc(C)n1)[C@@H]1C[C@@H]2O[C@]2(C)CCC[C@H](C)[C@H](O)[C@@H](C)C(=O)C(C)(C)[C@@H](O)CC(=O)O1 [Epothilone B] | 93.3 % of control | 0.28 ± 0.04 | 0.2 ± 0.04

— patent US7317100B2, “Epothilone derivatives” (Novartis AG, priority 2002, dated 2008)
